Experimental data as given in ChEMBL document CHEMBL1151717, “In vivo active aldosterone synthase inhibitors with improved selectivity: lead optimization providing a series of pyridine substituted 3,4-dihydro-1H-quinolin-2-one derivatives” (J Med Chem, 2008).

Tests used:
Cytochrome P450 1A2 = target: T1, Cytochrome P450 1A2 (Homo sapiens, UniProt P05177)
T1 sequence (P05177 whole entry): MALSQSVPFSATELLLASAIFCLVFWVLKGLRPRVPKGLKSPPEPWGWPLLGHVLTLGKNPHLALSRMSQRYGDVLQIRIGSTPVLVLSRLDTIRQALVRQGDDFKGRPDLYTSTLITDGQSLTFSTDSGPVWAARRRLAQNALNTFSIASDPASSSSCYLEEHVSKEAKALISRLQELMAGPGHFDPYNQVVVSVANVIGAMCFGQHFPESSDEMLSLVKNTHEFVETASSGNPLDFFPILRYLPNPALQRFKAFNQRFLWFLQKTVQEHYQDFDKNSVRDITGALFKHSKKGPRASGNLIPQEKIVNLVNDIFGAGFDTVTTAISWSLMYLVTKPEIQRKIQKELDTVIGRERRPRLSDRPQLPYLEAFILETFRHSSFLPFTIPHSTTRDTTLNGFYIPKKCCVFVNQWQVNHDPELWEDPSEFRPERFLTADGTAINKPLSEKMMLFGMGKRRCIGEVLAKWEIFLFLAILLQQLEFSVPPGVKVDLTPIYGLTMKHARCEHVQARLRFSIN

[1] = target: T2, Cytochrome P450 11B1, mitochondrial (Homo sapiens, UniProt P15538)
T2 sequence (P15538 whole entry): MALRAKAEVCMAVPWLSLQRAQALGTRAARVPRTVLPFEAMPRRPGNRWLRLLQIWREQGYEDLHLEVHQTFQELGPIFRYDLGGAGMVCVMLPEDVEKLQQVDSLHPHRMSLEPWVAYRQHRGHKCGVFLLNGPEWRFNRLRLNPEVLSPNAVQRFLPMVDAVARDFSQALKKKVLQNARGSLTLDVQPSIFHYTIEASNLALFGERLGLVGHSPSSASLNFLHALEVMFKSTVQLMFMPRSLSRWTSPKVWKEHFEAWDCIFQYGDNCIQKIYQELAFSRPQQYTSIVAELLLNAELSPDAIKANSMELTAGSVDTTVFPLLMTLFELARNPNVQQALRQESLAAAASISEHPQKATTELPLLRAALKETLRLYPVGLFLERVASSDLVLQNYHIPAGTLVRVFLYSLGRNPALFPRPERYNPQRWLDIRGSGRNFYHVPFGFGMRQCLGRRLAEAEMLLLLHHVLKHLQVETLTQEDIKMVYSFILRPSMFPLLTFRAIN

CYP17 = target: T3, CYP17 (Homo sapiens, UniProt P05093); assay: in vitro; conditions: human CYP17 expressed in Escherichia coli
T3 sequence (P05093 whole entry): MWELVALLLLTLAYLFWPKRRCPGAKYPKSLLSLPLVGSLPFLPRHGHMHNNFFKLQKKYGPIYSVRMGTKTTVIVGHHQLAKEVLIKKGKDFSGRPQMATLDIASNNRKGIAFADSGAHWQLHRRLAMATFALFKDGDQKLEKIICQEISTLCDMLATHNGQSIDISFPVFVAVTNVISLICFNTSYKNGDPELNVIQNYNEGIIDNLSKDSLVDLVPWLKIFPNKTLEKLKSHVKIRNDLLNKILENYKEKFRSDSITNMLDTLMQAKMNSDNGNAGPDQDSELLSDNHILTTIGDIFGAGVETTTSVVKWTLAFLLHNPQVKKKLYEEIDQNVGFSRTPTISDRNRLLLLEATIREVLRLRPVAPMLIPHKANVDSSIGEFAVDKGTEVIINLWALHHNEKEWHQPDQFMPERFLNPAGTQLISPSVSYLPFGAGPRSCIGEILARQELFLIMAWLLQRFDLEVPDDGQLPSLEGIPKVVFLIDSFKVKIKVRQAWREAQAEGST
Description: Inhibition of human CYP17 expressed in Escherichia coli at 2.5 uM

Cytochrome P450 2C19 = Cytochrome P450 2C19 (Homo sapiens, UniProt P33261); assay: Inhibition of human recombinant CYP2C19 expressed in baculovirus-infected insect microsomes; format: ADME, Microsome; conditions: read-out: IC50
Homo sapiens = species: Homo sapiens; assay: Selectivity ratio, IC50 for human CYP11B1 to IC50 for human CYP11B2
Cytochrome P450 2B6 = target: T4, Cytochrome P450 2B6 (Homo sapiens, UniProt P20813); assay: Inhibition of human recombinant CYP2B6 expressed in baculovirus-infected insect microsomes; format: ADME, Microsome
T4 sequence (P20813 whole entry): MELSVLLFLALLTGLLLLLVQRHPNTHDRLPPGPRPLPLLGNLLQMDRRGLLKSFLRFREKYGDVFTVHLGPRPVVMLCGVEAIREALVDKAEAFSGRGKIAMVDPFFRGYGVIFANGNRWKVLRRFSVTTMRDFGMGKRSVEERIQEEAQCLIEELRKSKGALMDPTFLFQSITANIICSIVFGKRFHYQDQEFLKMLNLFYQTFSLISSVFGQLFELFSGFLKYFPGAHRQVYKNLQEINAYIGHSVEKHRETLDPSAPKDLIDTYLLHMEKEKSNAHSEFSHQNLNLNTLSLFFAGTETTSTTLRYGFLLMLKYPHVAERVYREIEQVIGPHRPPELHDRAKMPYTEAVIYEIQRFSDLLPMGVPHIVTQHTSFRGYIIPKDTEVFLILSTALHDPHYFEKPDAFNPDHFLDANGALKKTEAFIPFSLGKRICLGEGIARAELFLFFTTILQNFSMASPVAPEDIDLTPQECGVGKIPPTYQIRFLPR

Cytochrome P450 2C9 = Cytochrome P450 2C9 (Homo sapiens, UniProt P11712); assay: Inhibition of human recombinant CYP2C9 expressed in baculovirus-infected insect microsomes; format: ADME, Microsome
[2] = target: T5, Cytochrome P450 11B2, mitochondrial (Homo sapiens, UniProt P19099)
T5 sequence (P19099 whole entry): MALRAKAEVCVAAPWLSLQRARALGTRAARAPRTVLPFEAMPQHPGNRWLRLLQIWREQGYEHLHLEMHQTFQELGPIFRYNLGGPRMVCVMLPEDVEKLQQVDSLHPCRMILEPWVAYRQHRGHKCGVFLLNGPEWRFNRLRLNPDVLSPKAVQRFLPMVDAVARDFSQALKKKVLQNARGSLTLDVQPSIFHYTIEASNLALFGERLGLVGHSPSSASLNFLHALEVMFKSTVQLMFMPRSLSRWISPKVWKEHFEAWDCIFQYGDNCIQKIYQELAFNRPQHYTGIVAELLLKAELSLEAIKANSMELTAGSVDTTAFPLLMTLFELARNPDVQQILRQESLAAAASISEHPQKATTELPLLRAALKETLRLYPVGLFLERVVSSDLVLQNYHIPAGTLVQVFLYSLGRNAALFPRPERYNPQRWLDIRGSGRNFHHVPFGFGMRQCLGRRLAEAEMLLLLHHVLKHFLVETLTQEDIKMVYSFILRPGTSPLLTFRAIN

Cytochrome P450 3A4 = Cytochrome P450 3A4 (Homo sapiens, UniProt P08684); assay: Inhibition of human recombinant CYP3A4 expressed in baculovirus-infected insect microsomes; format: ADME, Microsome
CYP1A2 = target: T6, CYP1A2 (Homo sapiens, UniProt P05177); assay: Inhibition of human recombinant CYP1A2 expressed in baculovirus-infected insect microsomes at 2 uM; format: ADME, Microsome
T6 sequence (P05177 whole entry): T1 sequence (P05177 whole entry)

Chain of Cytochrome P450 2C9 (P11712 whole entry): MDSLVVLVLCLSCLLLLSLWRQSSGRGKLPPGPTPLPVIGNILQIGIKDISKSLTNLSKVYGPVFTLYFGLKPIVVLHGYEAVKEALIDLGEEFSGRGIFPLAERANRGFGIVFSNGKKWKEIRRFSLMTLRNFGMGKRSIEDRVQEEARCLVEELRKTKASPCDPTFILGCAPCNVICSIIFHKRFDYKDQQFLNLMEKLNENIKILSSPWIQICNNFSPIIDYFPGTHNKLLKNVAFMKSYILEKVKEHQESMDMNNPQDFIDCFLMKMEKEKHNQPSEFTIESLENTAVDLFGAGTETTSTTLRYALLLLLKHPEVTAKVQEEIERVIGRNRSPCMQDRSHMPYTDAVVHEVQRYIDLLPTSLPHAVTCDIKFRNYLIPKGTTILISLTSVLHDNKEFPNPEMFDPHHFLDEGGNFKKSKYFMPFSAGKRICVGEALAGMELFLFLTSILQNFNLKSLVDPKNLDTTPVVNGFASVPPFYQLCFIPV
Chain of Cytochrome P450 3A4 (P08684 whole entry): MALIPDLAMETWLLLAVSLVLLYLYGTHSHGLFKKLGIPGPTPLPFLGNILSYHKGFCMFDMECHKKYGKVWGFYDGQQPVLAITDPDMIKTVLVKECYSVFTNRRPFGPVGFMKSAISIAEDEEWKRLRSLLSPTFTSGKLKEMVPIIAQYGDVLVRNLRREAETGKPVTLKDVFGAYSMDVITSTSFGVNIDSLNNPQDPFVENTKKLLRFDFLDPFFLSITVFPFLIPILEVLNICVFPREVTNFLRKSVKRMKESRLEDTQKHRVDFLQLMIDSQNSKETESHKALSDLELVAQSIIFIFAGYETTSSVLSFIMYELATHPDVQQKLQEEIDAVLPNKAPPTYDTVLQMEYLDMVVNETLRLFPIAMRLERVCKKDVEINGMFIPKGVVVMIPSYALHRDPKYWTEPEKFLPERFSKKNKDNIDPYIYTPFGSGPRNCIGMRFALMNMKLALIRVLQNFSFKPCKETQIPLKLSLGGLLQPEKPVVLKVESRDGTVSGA
Chain of Cytochrome P450 2C19 (P33261 whole entry): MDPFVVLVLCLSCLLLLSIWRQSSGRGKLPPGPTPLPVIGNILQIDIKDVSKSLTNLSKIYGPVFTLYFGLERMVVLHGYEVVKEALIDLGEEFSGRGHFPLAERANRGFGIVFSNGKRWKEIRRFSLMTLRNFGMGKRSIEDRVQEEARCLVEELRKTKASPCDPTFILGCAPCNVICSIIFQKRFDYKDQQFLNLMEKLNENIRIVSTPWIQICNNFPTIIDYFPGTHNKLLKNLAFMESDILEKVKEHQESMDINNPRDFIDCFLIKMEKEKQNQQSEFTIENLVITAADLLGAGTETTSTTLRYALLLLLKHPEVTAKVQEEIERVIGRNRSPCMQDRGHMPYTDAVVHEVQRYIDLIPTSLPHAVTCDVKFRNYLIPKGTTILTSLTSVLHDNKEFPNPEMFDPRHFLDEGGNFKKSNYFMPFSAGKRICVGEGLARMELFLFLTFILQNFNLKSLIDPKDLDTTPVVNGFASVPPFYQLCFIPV

Row | IC50 (Cytochrome P450 1A2) | IC50 [1] | inhibition at 2.5 µM (CYP17) | IC50 (Cytochrome P450 2C19) | Ratio IC50 (Homo sapiens) | IC50 (Cytochrome P450 2B6) | IC50 (Cytochrome P450 2C9) | IC50 [2] | IC50 (Cytochrome P450 3A4) | inhibition at 2 µM (CYP1A2) | SMILES
1 | > 150 µM | 0.033 µM | 22% | 9.2 µM | 187 | < 100 µM | 2.9 µM | 0.0002 µM | < 50 µM | < 5% | O=C1CCc2cc(-c3cncc4ccccc34)ccc2N1
2 | 1.56 µM | 0.191 µM | 21% | 45.4 µM | 106 | < 50 µM | 12.9 µM | 0.0018 µM | 3.8 µM | 57% | COc1cncc(-c2ccc3c(c2)CCC(=O)C3)c1
3 | 1.55 µM | 3.96 µM | 20% | 41.5 µM | 496 | < 50 µM | 28.3 µM | 0.0078 µM | 6.21 µM | 60% | O=C1CCc2cc(-c3cccnc3)ccc2C1
